Data reported in US20260317344A1, “EGFR INHIBITORS FOR TREATING DISEASE” (BLOSSOMHILL THERAPEUTICS, INC., priority 2023, published 2026).

Tests used:
EGFR (L858R) = EGFR (L858R) (Homo sapiens, UniProt P00533, L858R); assay: HotSpot radiometric kinase assay, inhibition of EGFR L858R mutant; format: biochemical; settings: 33P ATP, room temperature, 120 m
Method in brief: (§1)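 Kinase/substrate pairs in 20 mM HEPES pH 7.5, 10 mM MgCl2, 1 mM EGTA, 0.02% Brij35, 0.02 mg/ml BSA, 0.1 mM Na3VO4, 2 mM DTT, 1% DMSO, preincubated ~20 min with compound. Reaction started with ATP/33P-ATP ([…]), run 120 min at room temperature; phosphorylation read by P81 filter binding, IC50 from curve fits.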

EGFR (L858R/T790M) = EGFR (L858R/T790M) (Homo sapiens, UniProt P00533, L858R/T790M); assay: HotSpot radiometric kinase assay, inhibition of EGFR L858R/T790M mutant; format: biochemical; settings: 33P ATP, room temperature, 120 m
Method in brief: (§2)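 Radiometric filter-binding format: ATP plus 33P-ATP ([…]) was added about 20 min after compound to kinase and substrate in HEPES pH 7.5 buffer with Mg2+, EGTA, Brij35, BSA, vanadate, DTT and 1% DMSO. After 120 min at room temperature, reactions were spotted on P81 paper and washed in phosphoric acid; IC50 values fitted.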

EGFR (L858R/T790M/C797S) = EGFR (L858R/T790M/C797S) (Homo sapiens, UniProt P00533, C797S/L858R/T790M); assay: HotSpot radiometric kinase assay, inhibition of EGFR L858R/T790M/C797S mutant; format: biochemical; settings: 33P ATP, room temperature, 120 m
Method in brief: as §2

EGFR (D746-750) = EGFR (D746-750) (Homo sapiens, UniProt P00533, DEL746-750); assay: HotSpot radiometric kinase assay, inhibition of EGFR 746-750 mutant; format: biochemical; settings: 33P ATP, room temperature, 120 m
Chain of EGFR (D746-750) (P00533 with tags, fused parts or gaps DEL746-750): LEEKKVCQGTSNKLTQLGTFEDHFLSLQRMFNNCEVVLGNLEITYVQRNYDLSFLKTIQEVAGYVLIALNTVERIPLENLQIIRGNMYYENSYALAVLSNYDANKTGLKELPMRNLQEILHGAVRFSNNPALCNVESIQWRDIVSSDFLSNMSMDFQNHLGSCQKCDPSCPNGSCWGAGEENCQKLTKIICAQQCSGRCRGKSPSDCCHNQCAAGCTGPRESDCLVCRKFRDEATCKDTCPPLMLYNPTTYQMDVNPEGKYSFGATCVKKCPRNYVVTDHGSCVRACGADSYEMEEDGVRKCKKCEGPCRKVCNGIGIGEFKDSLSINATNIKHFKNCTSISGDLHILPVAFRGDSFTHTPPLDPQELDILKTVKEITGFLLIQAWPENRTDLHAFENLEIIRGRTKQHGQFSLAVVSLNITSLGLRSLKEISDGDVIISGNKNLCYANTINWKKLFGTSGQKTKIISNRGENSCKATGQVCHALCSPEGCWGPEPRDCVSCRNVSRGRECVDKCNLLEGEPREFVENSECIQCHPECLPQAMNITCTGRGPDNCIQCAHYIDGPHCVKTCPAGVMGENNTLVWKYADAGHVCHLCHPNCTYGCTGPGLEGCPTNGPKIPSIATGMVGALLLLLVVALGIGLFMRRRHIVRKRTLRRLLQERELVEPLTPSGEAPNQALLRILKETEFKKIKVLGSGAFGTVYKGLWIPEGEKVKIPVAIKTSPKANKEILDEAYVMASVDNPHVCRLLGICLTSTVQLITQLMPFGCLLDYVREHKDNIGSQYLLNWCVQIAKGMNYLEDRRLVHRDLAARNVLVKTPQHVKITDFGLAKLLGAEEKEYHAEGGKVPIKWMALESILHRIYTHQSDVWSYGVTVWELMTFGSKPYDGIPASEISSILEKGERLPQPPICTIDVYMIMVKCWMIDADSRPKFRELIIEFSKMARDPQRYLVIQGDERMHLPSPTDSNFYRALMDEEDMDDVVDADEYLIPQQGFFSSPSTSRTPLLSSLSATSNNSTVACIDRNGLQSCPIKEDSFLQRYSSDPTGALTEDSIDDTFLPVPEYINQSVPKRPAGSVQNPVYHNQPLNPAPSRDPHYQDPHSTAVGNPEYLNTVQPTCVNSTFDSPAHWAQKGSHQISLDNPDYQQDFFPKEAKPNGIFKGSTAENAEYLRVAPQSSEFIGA
Method in brief: as §2

EGFR (D746-750/C797S) = EGFR (D746-750/C797S) (Homo sapiens, UniProt P00533, C797S/DEL746-750); assay: HotSpot radiometric kinase assay, inhibition of EGFR 746-750/C797S mutant; format: biochemical; settings: 33P ATP, room temperature, 120 m
Chain of EGFR (D746-750/C797S) (P00533 with tags, fused parts or gaps DEL746-750/C797S): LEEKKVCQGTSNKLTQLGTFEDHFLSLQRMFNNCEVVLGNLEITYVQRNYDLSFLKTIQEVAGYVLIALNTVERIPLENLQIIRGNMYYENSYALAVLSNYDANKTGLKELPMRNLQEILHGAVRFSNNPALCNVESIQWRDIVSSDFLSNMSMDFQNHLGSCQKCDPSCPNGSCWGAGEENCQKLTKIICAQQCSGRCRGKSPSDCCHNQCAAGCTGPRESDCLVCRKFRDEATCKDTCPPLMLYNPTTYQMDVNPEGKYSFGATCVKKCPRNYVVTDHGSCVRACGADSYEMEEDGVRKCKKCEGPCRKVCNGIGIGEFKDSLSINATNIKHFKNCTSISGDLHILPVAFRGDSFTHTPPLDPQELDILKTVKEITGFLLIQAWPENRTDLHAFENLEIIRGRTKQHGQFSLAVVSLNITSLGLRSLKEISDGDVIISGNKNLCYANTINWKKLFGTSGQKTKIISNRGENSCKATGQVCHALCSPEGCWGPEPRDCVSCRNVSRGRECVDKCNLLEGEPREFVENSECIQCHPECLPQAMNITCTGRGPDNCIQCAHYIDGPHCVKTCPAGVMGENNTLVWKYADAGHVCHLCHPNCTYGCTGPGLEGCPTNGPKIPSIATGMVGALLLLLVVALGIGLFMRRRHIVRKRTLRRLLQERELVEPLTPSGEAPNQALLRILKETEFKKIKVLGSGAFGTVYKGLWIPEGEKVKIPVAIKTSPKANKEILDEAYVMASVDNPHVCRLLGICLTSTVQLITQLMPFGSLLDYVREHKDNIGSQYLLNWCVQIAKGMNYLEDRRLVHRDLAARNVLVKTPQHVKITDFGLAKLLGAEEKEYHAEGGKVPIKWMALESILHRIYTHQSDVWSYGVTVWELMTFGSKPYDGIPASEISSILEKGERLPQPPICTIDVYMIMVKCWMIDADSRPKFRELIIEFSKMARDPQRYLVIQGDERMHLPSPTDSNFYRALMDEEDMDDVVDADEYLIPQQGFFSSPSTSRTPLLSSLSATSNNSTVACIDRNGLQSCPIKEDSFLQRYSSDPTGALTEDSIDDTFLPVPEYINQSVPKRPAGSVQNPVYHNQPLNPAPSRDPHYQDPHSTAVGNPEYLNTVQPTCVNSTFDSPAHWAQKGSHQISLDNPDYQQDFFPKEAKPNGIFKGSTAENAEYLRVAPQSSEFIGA
Method in brief: as §2

EGFR (D770_N771insNPG) = EGFR (D770_N771insNPG) (Homo sapiens, UniProt P00533, INS770NPG); assay: HotSpot radiometric kinase assay, inhibition of EGFR (D770_N771insNPG) mutant; format: biochemical; settings: 33P ATP, room temperature, 120 m
Method in brief: as §2

EGFR WT = EGFR WT (Homo sapiens, UniProt P00533); assay: HotSpot radiometric kinase assay, inhibition of EGFR WT; format: biochemical; settings: 33P ATP, room temperature, 120 m
Method in brief: as §1

[1] = molecular target: T1, pEGFR, PC-9 cells (d746-750 EGFR) (Homo sapiens, UniProt P00533, DEL746-750); assay: Cellular EGFR phosphorylation assay (LANCE Ultra TR-FRET) in PC-9 cells; format: cell-based; settings: 4 hours at 37° C., read-out: PC-9 pEGFR IC50
T1 construct: pEGFR (Tyr1068) TR-FRET
T1 sequence (P00533 with tags, fused parts or gaps DEL746-750): as the sequence (P00533 with tags, fused parts or gaps DEL746-750) above
Method in brief: (§3)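 PC-9 and NCI-H1975 cells (50 thousand/well) or A431 cells (30 thousand/well) treated next day for 4 h at 37° C with a 9-dose 3-fold titration; A431 stimulated with 40 ng/mL EGF for the final 10 min. Lysate phospho-EGFR (Tyr1068) read by LANCE Ultra TR-FRET; IC50 derived.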

[2] = molecular target: T2, pEGFR, NCI-H1975 cells (L858R/T790M EGFR) (Homo sapiens, UniProt P00533, L858R/T790M); assay: Cellular EGFR phosphorylation assay (LANCE Ultra TR-FRET) in NCI-H1975 cells; format: cell-based; settings: 4 hours at 37° C., read-out: H1975 pEGFR IC50
T2 construct: pEGFR (Tyr1068) TR-FRET
Method in brief: as §3

[3] = molecular target: T3, pEGFR, A431 cells (wildtype EGFR) (Homo sapiens, UniProt P00533); assay: Cellular EGFR phosphorylation assay (LANCE Ultra TR-FRET) in A431 cells; format: cell-based; settings: 4 hours at 37° C., 40 ng/mL EGF for the final 10 minutes, read-out: A431 pEGFR IC50
T3 construct: pEGFR (Tyr1068) TR-FRET
T3 sequence (P00533 25-1210): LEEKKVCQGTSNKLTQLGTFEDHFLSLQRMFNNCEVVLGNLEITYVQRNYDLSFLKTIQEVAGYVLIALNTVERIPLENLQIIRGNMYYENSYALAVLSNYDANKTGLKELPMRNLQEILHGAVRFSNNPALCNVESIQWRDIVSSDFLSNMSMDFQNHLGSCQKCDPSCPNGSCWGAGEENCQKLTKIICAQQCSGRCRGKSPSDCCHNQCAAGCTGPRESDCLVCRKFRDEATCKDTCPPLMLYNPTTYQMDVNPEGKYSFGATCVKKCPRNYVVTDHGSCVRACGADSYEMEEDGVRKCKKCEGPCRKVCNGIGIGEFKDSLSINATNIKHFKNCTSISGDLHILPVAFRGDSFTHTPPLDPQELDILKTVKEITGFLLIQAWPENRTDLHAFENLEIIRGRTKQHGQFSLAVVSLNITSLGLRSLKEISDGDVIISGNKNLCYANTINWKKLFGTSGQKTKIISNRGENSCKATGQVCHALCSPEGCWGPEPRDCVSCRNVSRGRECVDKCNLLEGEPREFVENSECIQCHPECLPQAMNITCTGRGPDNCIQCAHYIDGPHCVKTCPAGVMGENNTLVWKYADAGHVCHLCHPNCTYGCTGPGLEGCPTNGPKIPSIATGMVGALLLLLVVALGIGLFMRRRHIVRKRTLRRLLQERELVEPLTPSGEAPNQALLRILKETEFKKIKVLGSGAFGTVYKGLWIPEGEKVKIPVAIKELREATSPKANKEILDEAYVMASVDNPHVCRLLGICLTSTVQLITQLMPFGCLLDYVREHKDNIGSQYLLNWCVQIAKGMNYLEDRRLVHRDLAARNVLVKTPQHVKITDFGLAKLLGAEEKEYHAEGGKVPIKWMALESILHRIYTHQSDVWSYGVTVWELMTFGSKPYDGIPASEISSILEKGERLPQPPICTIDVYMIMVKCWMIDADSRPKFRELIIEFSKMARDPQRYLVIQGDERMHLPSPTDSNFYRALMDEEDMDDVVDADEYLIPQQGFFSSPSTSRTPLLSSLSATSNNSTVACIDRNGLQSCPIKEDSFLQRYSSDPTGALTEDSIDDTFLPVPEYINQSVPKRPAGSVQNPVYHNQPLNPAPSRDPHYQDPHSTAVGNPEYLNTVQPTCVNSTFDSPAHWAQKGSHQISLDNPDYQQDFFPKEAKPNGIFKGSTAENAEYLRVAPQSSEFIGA
Method in brief: as §3

PC-9 cells = assay: 5-Day CellTiter Glo (CTG) cell proliferation assay, PC-9; format: cell-based; settings: Homo sapiens; PC-9 cells (d746-750 EGFR), 5-day CTG proliferation, 120 hours; read-out: PC-9 IC50
Method in brief: (§4)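 Proliferation of EGFR-driven NSCLC cells was scored as CellTiter-Glo 2.0 luminescence after a 5-day (120 h) incubation with compounds in 9 doses. IC50 values came from the dose-response curves.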

NCI-H1975 cells = assay: 5-Day CellTiter Glo (CTG) cell proliferation assay, NCI-H1975; format: cell-based; settings: Homo sapiens; NCI-H1975 cells (L858R/T790M EGFR), 5-day CTG proliferation, 120 hours; read-out: H1975 IC50
Method in brief: as §4

HCC827 cells = assay: 5-Day CellTiter Glo (CTG) cell proliferation assay, HCC827; format: cell-based; settings: Homo sapiens; HCC827 cells (d746-750 EGFR), 5-day CTG proliferation, 120 hours; read-out: HCC827 IC50
Method in brief: as §4

[4] = tested on: BaF3 cells with engineered EGFR L858R/T790M/C797S; assay: 3-Day CellTiter Glo (CTG) cell proliferation assay, BaF3 EGFR L858R/T790M/C797S; format: cell-based; settings: Mus musculus, 3-day CTG proliferation, 72 hours
Method in brief: (§5)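 Viability after 72 h compound exposure (9 concentrations, 37° C, 5% CO2) was measured as ATP luminescence with CellTiter-Glo 2.0 in EGFR-mutant-engineered BaF3 cells plated at one thousand cells per well. IC50 values obtained by curve fitting.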

[5] = tested on: BaF3 cells with engineered EGFR L858R/C797S; assay: 3-Day CellTiter Glo (CTG) cell proliferation assay, BaF3 EGFR L858R/C797S; format: cell-based; settings: Mus musculus, 3-day CTG proliferation, 72 hours
Method in brief: as §5

[6] = tested on: BaF3 cells with engineered EGFR d746-750/T790M; assay: 3-Day CellTiter Glo (CTG) cell proliferation assay, BaF3 EGFR d746-750/T790M; format: cell-based; settings: Mus musculus; BaF3 EGFR d746-750/T790M cells, 3-day CTG proliferation, 72 hours
Method in brief: as §5

| Compound | IC50 (EGFR (L858R)) | IC50 (EGFR (L858R/T790M)) | IC50 (EGFR (L858R/T790M/C797S)) | IC50 (EGFR (D746-750)) | IC50 (EGFR (D746-750/C797S)) | IC50 (EGFR (D770_N771insNPG)) | IC50 (EGFR WT) | IC50 [1] | IC50 [2] | IC50 [3] | IC50 (PC-9 cells) | IC50 (NCI-H1975 cells) | IC50 (HCC827 cells) | IC50 [4] | IC50 [5] | IC50 [6] |
| --- | --- | --- | --- | --- | --- | --- | --- | --- | --- | --- | --- | --- | --- | --- | --- | --- |
| CCN1Cc2c(c(C)nn2CCO)/C=C/c2n[nH]c3cnc(cc23)-c2c(C)nn(C)c2O[C@H](C)C1 [Ex. 14, 2-[(10R,17E)-12-ethyl-6,8,10,16-tetramethyl-2,8,10,11,12,13-hexahydro-14H-5,3-(azenometheno)tripyrazolo[3,4-f:3′,4′-j:4″,3″-n][1,4]oxazacyclopentadecin-14-yl]ethan-1-ol] | 0.25 nM | 0.23 nM | 0.22 nM | 0.47 nM | 0.2 nM | 0.15 nM | 0.08 nM | 11.8 nM | 7.52 nM | 44.7 nM | 54.5 nM | 110 nM | 2.87 nM | 5.24 nM | 1.24 nM | 22.3 nM |
| Cc1nn(C)c2c1-c1cc3c(n[nH]c3cn1)/C=C/c1c(OCC#N)nn(CCO)c1CN(C)C[C@H](C)O2 [Ex. 22, {[(10S,17E)-14-(2-hydroxyethyl)-6,8,10,12-tetramethyl-2,10,11,12,13,14-hexahydro-8H-5,3-(azenometheno)tripyrazolo[3,4-f:3′,4′-j:4″,3″-n][1,4]oxazacyclopentadecin-16-yl]oxy}acetonitrile] | 1.45 nM | 0.73 nM | 0.52 nM | 0.3 nM | 1.27 nM | 0.28 nM | 0.41 nM | 5.67 nM | 6.81 nM | 67.5 nM | 7.12 nM | 19.8 nM | 0.87 nM | 4.39 nM | 0.56 nM | 5.77 nM |
| CCOc1nn([C@@H](C)CO)c2c1/C=C/c1n[nH]c3cnc(cc13)-c1c(C)nn(C)c1OC[C@H](C)N(CC)C2 [Ex. 25, (2S)-2-[(11S,17E)-16-ethoxy-12-ethyl-6,8,11-trimethyl-2,8,10,11,12,13-hexahydro-14H-5,3-(azenometheno)tripyrazolo[3,4-f:3′,4′-j:4″,3″-n][1,4]oxazacyclopentadecin-14-yl]propan-1-ol] | 1.88 nM | 1.39 nM | 0.51 nM | 0.51 nM | 1.02 nM | 1.23 nM | 0.55 nM | 1.24 nM | 1.93 nM | 17.9 nM | 2.97 nM | 10.3 nM | 0.46 nM | 0.85 nM | 0.13 nM | 0.63 nM |
| CCOc1nn(CCO)c2c1/C=C/c1n[nH]c3c(C)nc(cc13)-c1cnn(C)c1O[C@@H](C)CN(CC)C2 [Ex. 28, 2-[(10S,17E)-16-ethoxy-12-ethyl-8,10,20-trimethyl-2,8,10,11,12,13-hexahydro-14H-5,3-(azenometheno)tripyrazolo[3,4-f:3′,4′-j:4″,3″-n][1,4]oxazacyclopentadecin-14-yl]ethan-1-ol] | 1.99 nM | 0.46 nM | 0.41 nM | 0.37 nM | 0.85 nM | 1.23 nM | 1.03 nM | 14.4 nM | 3 nM | 52.8 nM | 16.8 nM | 33 nM | 2.33 nM | 1.71 nM | 2.47 nM | 1.16 nM |
| CCN1Cc2c(c(OCC#N)nn2CCO)/C=C/c2n[nH]c3cnc(cc23)-c2c(C)nn(C)c2O[C@@H](C)C1 [Ex. 23, {[(10S,17E)-12-ethyl-14-(2-hydroxyethyl)-6,8,10-trimethyl-2,10,11,12,13,14-hexahydro-8H-5,3-(azenometheno)tripyrazolo[3,4-f:3′,4′-j:4″,3″-n][1,4]oxazacyclopentadecin-16-yl]oxy}acetonitrile] | 1.02 nM | 0.6 nM | 0.47 nM | 0.36 nM | 1.01 nM | 0.29 nM | 0.31 nM | 3.42 nM | 5.84 nM | 43.1 nM | 2.91 nM | 10 nM | 0.41 nM | 2.69 nM | 0.43 nM | 3.77 nM |
| CCOc1nn([C@@H](C)CO)c2c1/C=C/c1n[nH]c3cnc(cc13)-c1c(C)nn(C)c1O[C@@H](C)CN(CC)C2 [Ex. 26, (2S)-2-[(10S,17E)-16-ethoxy-12-ethyl-6,8,10-trimethyl-2,8,10,11,12,13-hexahydro-14H-5,3-(azenometheno)tripyrazolo[3,4-f:3′,4′-j:4″,3″-n][1,4]oxazacyclopentadecin-14-yl]propan-1-ol] | 2.39 nM | 1.44 nM | 0.93 nM | 0.73 nM | 1.97 nM | 0.9 nM | 0.8 nM | 1.6 nM | 3.4 nM | 12.2 nM | 0.44 nM | 1.11 nM | 0.27 nM | 1.16 nM | 0.11 nM | 0.66 nM |
| CCOc1nn([C@@H](C)CO)c2c1/C=C/c1n[nH]c3cnc(cc13)-c1c(C)nn(C)c1O[C@H](C)CN(CC)C2 [Ex. 24, (2S)-2-[(10R,17E)-16-ethoxy-12-ethyl-6,8,10-trimethyl-2,8,10,11,12,13-hexahydro-14H-5,3-(azenometheno)tripyrazolo[3,4-f:3′,4′-j:4″,3″-n][1,4]oxazacyclopentadecin-14-yl]propan-1-ol] | 1.68 nM | 0.94 nM | 0.57 nM | 0.51 nM | 1.08 nM | 0.62 nM | 0.5 nM | 1.5 nM | 1.6 nM | 22.4 nM | 0.47 nM | 1.26 nM | 0.27 nM | 0.78 nM | 0.11 nM | 0.41 nM |
| CCOc1nn(CCO)c2c1/C=C/c1n[nH]c3cnc(cc13)-c1c(C)nn(C)c1O[C@@H](C)CN(CC)C2 [Ex. 15, 2-[(10S,17E)-16-ethoxy-12-ethyl-6,8,10-trimethyl-2,8,10,11,12,13-hexahydro-14H-5,3-(azenometheno)tripyrazolo[3,4-f:3′,4′-j:4″,3″-n][1,4]oxazacyclopentadecin-14-yl]ethan-1-ol] | 0.27 nM | 0.37 nM | 0.37 nM | 0.6 nM | 0.24 nM | 0.22 nM | 0.12 nM | 1.05 nM | 1.86 nM | 7.48 nM | 0.33 nM | 0.76 nM | 0.18 nM | 0.79 nM | 0.06 nM | 0.58 nM |
